Results on two compounds are retold here after patent US11225503B2, “Crystobactamides” (HELMHOLTZ-ZENTRUM FÜR INFEKTIONSFORSCHUNG GMBH, priority 2013, dated 2022).

The test system of data set [1] is several microorganisms and cell lines. Briefly: Biological evaluation, summary statements over the MIC and cytotoxicity tests. It counts as cell-based. As to the method:
(§1) Cells were seeded at 6×10^3 cells per well of 96-well plates (Corning CellBind®) in complete medium (180 μl) and directly treated with cystobactamides dissolved in methanol in a serial dilution. Compound were tested in duplicate for 5 d, as well as the internal solvent control. After 5 d incubation, 5 mg/ml MTT in PBS (20 μL) was added per well and it was further incubated for 2 h at 37° C.[7] The medium was then discarded and cells were washed with PBS (100 μl) before adding 2-propanol/10N HCl (250:1, v/v; 100 μl) in order to dissolve formazan granules. The absorbance at 570 nm was measured using a microplate reader (EL808, Bio-Tek Instruments Inc.).
MIC values were determined in microdilution assays. Overnight cultures were diluted in the appropriate growth medium to achieve an inoculum of 10^4-10^6 cfu/mL. Yeasts were grown in Myc medium (1% phytone peptone, 1% glucose, 50 mM HEPES, pH 7.0), S. pneumonia and E. faecalis in tryptic soy broth (TSB: 1.7% peptone casein, 0.3% peptone soymeal, 0.25% glucose, 0.5% NaCl, 0.25% K2HPO4; pH 7.3); M. smegmatis in Middlebrook 7H9 medium supplemented with 10% Middlebrook ADC enrichment and 2 ml/l glycerol). All other listed bacteria were grown in Müller-Hinton broth (0.2% beef infusion solids, 1.75% casein hydrolysate, 0.15% starch, pH 7.4). Cystobactamides and reference drugs were added directly to the cultures in sterile 96-well plates as duplicates and serial dilutions were prepared. Microorganisms were grown on a microplate shaker (750 rpm, 30-37° C., 18-48 h), except S. pneumonia, which was grown at non-shaking conditions (37° C., 5% CO2, 18 h). Growth inhibition was assessed by visual inspection and the MIC was defined as the lowest concentration of compound that inhibited visible growth.

A short description of a further data set: in vitro. It counts as cell-based, Chinese hamster. To be noted: Chinese hamster. As to the method: Human HCT-116 colon carcinoma cells (CCL-247) were obtained from the American Type Culture Collection (ATCC) and Chinese hamster ovary CHO-K1 cells (ACC-110) were obtained from the German Collection of Microorganisms and Cell Cultures (DSMZ). Both cell lines were cultured under the conditions recommended by the respective depositor. Primary HUVEC (human umbilical vein endothelial cells; single donor) were purchased from PromoCell (Heidelberg, Germany) and cultured in Endothelial Cell Growth Medium (PromoCell) containing the following supplements: 2% FCS, 0.4% ECGS, 0.1 ng/ml EGF, 1 ng/ml bFGF, 90 μg/ml heparin, 1 μg/ml hydrocortisone.
as §1

On to `CO[C@H](C(=O)Nc1ccc(C(=O)Nc2ccc(C(=O)Nc3ccc(C(=O)O)cc3OC(C)C)c(O)c2OC(C)C)cc1)[C@H](NC(=O)c1ccc(NC(=O)c2ccc([N+](=O)[O-])cc2)cc1)C(=O)O` [cystobactamide A, Cystobactamide A], for which the “inhibition of pathogenic Gram-negative strains A. baumannii and P. aeruginosa (MIC range)” value in data set [1] (A. baumannii and P. aeruginosa) is reported as “low μg/ml range”. Besides, the “average potency on Gram-positive bacteria compared with ciprofloxacin” value in data set [1] (E. faecalis, S. aureus, S. pneumonia, average MIC) is given as “exceeded that of ciprofloxacin”. A word on the GI50: it is the concentration giving 50% growth inhibition. A lower GI50 goes with more potent growth inhibition. In turn, `CC(C)Oc1cc(C(=O)O)ccc1NC(=O)c1ccc(NC(=O)c2ccc(N)cc2)c(OC(C)C)c1O` [cystobactamide C, Cystobactamide C] displayed a GI50 at 5 d in “in vitro” of approximately 111 µM.
